According to ChEMBL document CHEMBL5465560, “Selectivity Literature for EUbOPEN Chemogenomic Library” (2024):
Each block holds one compound with its values, some of them ahead of it.

Experiments:
[1] = biological target: T1, Membrane-associated tyrosine- and threonine-specific cdc2-inhibitory kinase (Homo sapiens) (UniProt Q99640); assay: Selectivity interaction (Ambit KINOMEscan and KiNATiv profiling in Jurkat cells) EUB0000090b PKMYT1; type: cell-based; conditions: at 1 µM
T1 sequence (whole entry): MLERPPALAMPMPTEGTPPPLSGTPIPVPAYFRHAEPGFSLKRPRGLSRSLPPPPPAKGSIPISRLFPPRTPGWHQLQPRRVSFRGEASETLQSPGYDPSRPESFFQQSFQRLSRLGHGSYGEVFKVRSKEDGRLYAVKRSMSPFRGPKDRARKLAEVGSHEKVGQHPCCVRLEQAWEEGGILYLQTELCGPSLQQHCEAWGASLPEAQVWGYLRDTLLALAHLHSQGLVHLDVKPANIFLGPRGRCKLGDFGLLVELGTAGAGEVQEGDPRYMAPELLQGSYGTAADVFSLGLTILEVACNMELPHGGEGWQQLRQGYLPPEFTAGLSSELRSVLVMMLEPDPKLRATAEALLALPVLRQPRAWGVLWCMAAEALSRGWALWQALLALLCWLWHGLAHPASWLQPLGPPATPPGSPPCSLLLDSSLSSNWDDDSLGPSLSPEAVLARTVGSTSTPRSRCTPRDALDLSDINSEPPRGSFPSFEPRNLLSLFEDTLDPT

[2] = biological target: Serine/threonine-protein kinase WNK2 (Homo sapiens) (UniProt Q9Y3S1); assay: Selectivity interaction (Kinase panel (Invitrogen)) EUB0000639a WNK2; conditions: at 200 nM
[3] = biological target: Vasopressin V1a receptor (Homo sapiens) (UniProt P37288); assay: Selectivity interaction (Eurofins CEREP Diversity Profile (receptors and ion channels)) EUB0000279b AVPR1A; conditions: at 10 µM
[4] = biological target: T2, Serine/threonine-protein kinase Nek9 (Homo sapiens) (UniProt Q8TD19); assay: Selectivity interaction (ActivX KiNativ screen (ex vivo kinase selectivity in human PBMCs)) EUB0001619a NEK9; type: cell-based; conditions: PBMC, at 1 µM
T2 sequence (whole entry): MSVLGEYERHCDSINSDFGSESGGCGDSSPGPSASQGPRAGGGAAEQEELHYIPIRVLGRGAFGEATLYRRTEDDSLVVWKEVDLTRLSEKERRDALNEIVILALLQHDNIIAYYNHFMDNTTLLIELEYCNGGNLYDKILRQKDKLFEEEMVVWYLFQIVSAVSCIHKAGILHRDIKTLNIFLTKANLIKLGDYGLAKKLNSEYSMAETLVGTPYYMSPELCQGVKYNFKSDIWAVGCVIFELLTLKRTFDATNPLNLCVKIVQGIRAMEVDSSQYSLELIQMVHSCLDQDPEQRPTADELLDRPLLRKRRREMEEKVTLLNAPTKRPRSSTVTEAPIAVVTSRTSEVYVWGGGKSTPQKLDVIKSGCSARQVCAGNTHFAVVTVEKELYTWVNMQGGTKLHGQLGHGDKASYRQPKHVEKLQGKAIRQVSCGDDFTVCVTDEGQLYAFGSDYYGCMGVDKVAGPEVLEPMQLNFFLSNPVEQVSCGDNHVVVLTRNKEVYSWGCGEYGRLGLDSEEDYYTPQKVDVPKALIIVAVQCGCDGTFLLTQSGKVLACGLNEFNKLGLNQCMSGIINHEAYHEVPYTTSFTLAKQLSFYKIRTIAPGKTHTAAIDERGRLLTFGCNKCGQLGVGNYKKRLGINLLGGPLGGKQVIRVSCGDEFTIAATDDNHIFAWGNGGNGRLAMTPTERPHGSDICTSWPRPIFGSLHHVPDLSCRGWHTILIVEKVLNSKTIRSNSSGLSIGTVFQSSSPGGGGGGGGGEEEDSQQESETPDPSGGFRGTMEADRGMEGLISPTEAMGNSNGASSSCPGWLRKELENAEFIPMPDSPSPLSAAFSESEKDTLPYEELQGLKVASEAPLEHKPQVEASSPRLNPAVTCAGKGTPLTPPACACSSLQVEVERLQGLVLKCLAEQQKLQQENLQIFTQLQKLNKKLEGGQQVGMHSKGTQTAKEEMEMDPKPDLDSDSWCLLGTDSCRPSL

[5] = biological target: T3, Rhodopsin kinase GRK1 (Homo sapiens) (UniProt Q15835); assay: Selectivity interaction (KinomeScan (DiscoverX)) EUB0000618a GRK1; conditions: at 10 µM
T3 sequence (whole entry): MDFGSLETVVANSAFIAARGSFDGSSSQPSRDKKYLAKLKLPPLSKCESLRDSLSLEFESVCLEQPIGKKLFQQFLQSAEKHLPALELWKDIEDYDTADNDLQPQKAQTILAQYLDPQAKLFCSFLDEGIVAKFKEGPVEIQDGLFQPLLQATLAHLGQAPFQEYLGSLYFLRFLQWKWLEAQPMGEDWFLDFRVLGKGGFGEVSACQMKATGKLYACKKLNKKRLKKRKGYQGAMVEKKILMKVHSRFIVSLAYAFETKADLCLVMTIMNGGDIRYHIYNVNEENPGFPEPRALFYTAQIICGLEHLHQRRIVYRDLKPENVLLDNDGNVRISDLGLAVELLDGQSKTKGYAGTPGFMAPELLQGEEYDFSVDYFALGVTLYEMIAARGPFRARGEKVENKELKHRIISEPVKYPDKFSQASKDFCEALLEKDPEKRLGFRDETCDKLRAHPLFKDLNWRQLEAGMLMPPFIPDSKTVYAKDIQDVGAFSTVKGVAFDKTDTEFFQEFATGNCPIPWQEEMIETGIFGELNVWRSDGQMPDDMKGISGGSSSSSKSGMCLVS

Serine/threonine-protein kinase WNK2 (Homo sapiens), sequence (Q9Y3S1 whole entry): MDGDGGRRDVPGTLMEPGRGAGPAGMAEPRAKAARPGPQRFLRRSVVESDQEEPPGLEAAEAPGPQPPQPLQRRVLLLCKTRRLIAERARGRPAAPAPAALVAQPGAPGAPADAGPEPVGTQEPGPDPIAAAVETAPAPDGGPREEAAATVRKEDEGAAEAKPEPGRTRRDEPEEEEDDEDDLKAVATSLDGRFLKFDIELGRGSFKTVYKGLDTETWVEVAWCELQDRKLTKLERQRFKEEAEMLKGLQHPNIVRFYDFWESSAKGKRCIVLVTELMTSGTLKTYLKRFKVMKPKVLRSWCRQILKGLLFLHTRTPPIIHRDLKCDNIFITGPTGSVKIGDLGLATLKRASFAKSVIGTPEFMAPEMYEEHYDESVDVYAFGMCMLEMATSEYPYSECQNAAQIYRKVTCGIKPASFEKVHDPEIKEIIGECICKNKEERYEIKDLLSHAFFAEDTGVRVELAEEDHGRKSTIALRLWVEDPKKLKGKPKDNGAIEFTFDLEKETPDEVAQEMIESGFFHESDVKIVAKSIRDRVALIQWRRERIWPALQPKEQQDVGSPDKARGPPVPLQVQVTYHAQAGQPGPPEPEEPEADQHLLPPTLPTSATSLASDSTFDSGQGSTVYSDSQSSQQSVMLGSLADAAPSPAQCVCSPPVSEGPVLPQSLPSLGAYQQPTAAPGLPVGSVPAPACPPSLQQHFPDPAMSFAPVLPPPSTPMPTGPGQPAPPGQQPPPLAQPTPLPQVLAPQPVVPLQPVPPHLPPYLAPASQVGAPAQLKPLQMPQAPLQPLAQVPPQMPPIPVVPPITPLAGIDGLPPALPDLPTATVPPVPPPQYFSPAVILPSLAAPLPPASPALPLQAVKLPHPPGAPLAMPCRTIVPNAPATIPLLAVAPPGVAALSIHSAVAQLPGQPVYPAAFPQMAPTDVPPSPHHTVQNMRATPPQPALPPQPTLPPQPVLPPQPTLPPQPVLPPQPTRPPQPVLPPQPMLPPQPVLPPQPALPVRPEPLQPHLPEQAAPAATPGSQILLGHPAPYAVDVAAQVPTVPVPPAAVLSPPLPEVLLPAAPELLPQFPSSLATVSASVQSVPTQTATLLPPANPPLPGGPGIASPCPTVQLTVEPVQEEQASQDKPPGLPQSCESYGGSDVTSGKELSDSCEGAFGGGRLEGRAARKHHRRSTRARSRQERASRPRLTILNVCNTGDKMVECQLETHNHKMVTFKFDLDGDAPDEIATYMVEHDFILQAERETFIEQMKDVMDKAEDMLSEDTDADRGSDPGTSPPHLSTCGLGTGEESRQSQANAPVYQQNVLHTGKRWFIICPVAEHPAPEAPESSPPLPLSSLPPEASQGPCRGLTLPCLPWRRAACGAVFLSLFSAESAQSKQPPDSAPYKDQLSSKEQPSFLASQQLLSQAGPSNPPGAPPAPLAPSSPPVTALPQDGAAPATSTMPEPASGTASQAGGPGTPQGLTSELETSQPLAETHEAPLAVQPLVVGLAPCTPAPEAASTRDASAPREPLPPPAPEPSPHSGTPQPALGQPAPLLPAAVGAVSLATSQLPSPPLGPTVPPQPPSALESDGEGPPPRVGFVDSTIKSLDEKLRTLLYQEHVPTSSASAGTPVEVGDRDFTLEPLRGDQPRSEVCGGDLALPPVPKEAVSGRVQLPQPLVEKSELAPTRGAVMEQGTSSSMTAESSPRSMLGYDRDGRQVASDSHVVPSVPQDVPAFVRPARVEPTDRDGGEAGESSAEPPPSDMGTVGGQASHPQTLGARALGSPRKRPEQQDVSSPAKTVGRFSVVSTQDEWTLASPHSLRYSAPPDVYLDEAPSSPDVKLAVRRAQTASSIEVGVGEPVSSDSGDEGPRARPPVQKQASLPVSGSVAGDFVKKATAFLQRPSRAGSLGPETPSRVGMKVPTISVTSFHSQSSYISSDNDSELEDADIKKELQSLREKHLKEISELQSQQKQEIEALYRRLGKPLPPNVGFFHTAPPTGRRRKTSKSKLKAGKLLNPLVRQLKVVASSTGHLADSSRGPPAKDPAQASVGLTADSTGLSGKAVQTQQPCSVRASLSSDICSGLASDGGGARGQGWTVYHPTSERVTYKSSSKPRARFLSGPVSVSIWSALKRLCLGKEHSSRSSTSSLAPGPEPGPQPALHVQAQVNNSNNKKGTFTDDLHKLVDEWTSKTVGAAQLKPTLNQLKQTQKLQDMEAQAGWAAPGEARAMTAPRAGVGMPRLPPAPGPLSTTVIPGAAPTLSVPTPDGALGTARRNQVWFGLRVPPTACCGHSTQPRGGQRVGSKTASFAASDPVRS
Vasopressin V1a receptor (Homo sapiens), sequence (P37288 whole entry, looked up): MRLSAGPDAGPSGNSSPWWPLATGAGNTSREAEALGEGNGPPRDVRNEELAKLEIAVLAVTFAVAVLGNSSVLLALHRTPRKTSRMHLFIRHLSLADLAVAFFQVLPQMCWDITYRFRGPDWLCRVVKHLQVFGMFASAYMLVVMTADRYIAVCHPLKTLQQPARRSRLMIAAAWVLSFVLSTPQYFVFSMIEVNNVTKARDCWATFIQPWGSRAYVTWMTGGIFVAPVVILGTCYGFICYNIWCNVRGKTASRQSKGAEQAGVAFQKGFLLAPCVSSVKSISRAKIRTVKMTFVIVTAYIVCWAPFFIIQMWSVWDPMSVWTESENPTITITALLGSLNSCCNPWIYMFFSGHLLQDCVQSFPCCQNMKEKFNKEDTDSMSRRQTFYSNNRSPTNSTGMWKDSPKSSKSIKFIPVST

SMILES: CN(C)C/C=C/C(=O)Nc1ccc(C(=O)N2CCCC(Nc3ncc(Cl)c(-c4c[nH]c5ccccc45)n3)C2)cc1 (stereo not given)
% of control [1]: 93%

% of inhibition [2]: 3.33%
SMILES: CC[C@@H]1[C@H](F)C(=O)N[C@@H]1COc1nccc2cc(C(N)=O)c(OC)cc12 [ZIMLOVISERTIB]

% of control [3]: 89%
SMILES: CC(=O)c1cc(-c2ccccc2OCC2CC2)c2ncccn12

SMILES: N#Cc1cccc(-c2c[nH]c3ncnc(N4CCOCC4)c23)c1
% of inhibition [4]: 3%

SMILES: O[C@H]1CC[C@H](Nc2ncc3nc(Nc4c(F)cc(F)cc4F)n([C@H]4CCOC4)c3n2)CC1
% of control [5]: 78%
